Common to all, as to type: in vivo
Assay [1] deals with STZ-induced diabetic mice. As to the kind of experiment: Body weight of STZ-induced diabetic mice. Conditions: for Body Weight: dimethylbiguanide 185 mg/kg intragastric. As for the experimental part:
(§1) After 70 mice were adaptively fed for 3 days, they were fasted and kept feeding water for 12 hours, 0.1 mol/L STZ-streptozotocin solution was injected intraperitoneally, the injection volume was 60 mg/kg, and the injection was continued for 5 days. Seven days after the injection, the mice were fasted and kept feeding water for 8 hours, and the tail was cut to collect blood and the fasting blood glucose of the mice was measured. The model was considered as a successful model with a blood glucose concentration greater than 16.5 mmol/L. Diabetic mice successfully modeled (50) were randomly divided into 5 groups, namely: a high glucose model group, a dimethylbiguanid group (185 mg/kg), ATP1-1 high dose group (140 mg/kg), ATP1-1 medium dose group (70 mg/kg), ATP1-1 low dose group (35 mg/kg), 10 mice in each group, and 10 normal mice were randomly selected as a normal control group. All groups were administrated by intragastric administration, and the normal control group and high glucose model group were administrated the same amount of distilled water. after the successful modelling, the body weight, diet and water consumption and blood glucose of the mice before administration and 1, 2, 3, 4, 5, and 6 weeks after administration were measured, and the glucose tolerance was measured at the end of the experiment.

Assay [2] deals with diabetic mice. In words: Diet and water consumption of diabetic mice. To be noted: dimethylbiguanide 185 mg/kg, during the administration period, P<0.01. As for the experimental part: as §1
For assay [3], the system named is diabetic mice. As to the kind of experiment: Fasting blood glucose in diabetic mice. To be noted: dimethylbiguanide 185 mg/kg. On the procedure: as §1

On to `CN(C)C(=N)NC(=N)N` [Dimethylbiguanide, dimethylbiguanide], for which the “Body Weight” value in assay [1] (Week 0 (before administration), x±s, n=8) is 19.48 ± .78 g; in assay [1] (Week 1), 19.72 ± .77 g; in assay [1] (Week 2), 20.40 ± .78 g; in assay [1] (Week 3) it was 20.94 ± .73 g; in assay [1] (Week 4), 21.49 ± .84 g; in assay [1] (Week 5), 21.70 ± .90 g. Also, the “Body Weight” value in assay [1] (Week 6) was 21.89 ± .89 g. Moreover, the “body weight compared with high glucose model group” value in assay [1] (dimethylbiguanide 185 mg/kg, after 6 weeks of administration, P<0.05) is “significantly higher”. The “diet and water consumption compared with high glucose model group” value in the assay on diabetic mice [2] is given as “significantly reduced”. In the assay with diabetic mice [3] (after three weeks of administration, P<0.05), the “fasting blood sugar compared with high glucose group” value is reported as “significantly different”. In the assay with diabetic mice [3] (at the end of the administration (6 weeks)), the “blood glucose inhibition rate” value stood at 46.9%.

These data come from patent publication US20210187008A1, “USE OF ACANTHOPANAX TRIFOLIATUS POLYSACCHARIDE ATP1-1 IN PREPARATION OF DRUGS FOR TREATMENT OF DIABETES” (GUANGDONG PHARMACEUTICAL UNIVERSITY, priority 2019, published 2021).
